In article PMC7827217, “Probing the Binding Requirements of Modified Nucleosides with the DNA Nuclease SNM1A” (Molecules, 2021):

Columns and labels:
[1] = molecular target: T1, recombinant SNM1A (698-1040) (Homo sapiens, UniProt Q6PJP8); assay: Gel-based SNM1A inhibition assay (digestion of fluorescent 21-mer oligonucleotide substrate, denaturing PAGE); type: biochemical; settings: for Lowest Inhibitory Concentration: concentration gradient 1 mM to 1 µM, approximately 3-fold dilutions, 60 min at 37 °C; for Lowest Inhibitory Concentration / Inhibition of SNM1A (extent of digestion of substrate): SNM1A 2.5 nM, substrate 80 nM, 5 min preincubation; for Inhibition of SNM1A (extent of digestion of substrate): 1 mM compound, 60 min incubation (Figure 2c)
T1 construct: SNM1A (698-1040) was expressed and purified as described by Allerston et al; made in house
T1 sequence (Q6PJP8 698-1040): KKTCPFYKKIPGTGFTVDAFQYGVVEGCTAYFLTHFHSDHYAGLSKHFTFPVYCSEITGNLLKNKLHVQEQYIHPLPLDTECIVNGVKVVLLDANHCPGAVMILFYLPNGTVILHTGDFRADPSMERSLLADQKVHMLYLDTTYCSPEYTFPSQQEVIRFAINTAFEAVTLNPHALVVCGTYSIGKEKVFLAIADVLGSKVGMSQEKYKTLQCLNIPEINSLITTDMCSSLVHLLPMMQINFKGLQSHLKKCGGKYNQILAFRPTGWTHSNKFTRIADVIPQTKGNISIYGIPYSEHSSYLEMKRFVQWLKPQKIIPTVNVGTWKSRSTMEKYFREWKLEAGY
Protocol: The twelve modified nucleosides (Figure 2a) were evaluated as inhibitors of recombinant SNM1A to evaluate binding to the active site, using a previously reported gel-based assay with the same 21-mer oligonucleotide substrate. The nucleosides were incubated with SNM1A for 5 min prior to the addition of the fluorescently tagged 21-mer oligonucleotide substrate and further incubation for 1 h. In the event of the nucleoside binding to the active site, digestion of the substrate proceeds less efficiently (Figure 2b). SNM1A removes nucleotide monomers from the 5′-end, generating a shorter oligonucleotide that in turn is a substrate for SNM1A and can be digested further. The size of the oligonucleotide products, analysed by gel electrophoresis, therefore indicates how strongly a compound binds to the nuclease.
SNM1A (698-1040) was expressed and purified as described by Allerston et al..
SNM1A (698-1040) was stored as a 1.0 µM solution in reaction buffer (20 mM HEPES-KOH, pH 7.5, 50 mM KCl, 10 mM MgCl2, 0.05% Triton-X, 0.1 mg/mL BSA, 5% glycerol, 0.5 mM DTT). An oligonucleotide of the sequence 5′-TTAGCAGTCAGTCAGTCATCG-Cy3-3′ was phosphorylated using T4 PNK (New England Biolabs) and used as the substrate. Modified nucleosides were added to the assay in 40% DMSO solution (10 mM or as specified). Fluorescent oligonucleotides were protected from light during incubations and gel electrophoresis.
Modified nucleosides (10 nmol or as specified) were mixed with SNM1A (698–1040) (25 fmol) in reaction buffer containing 4% DMSO (10 µL) on ice and incubated at 37 °C for 5 min. Phosphorylated oligonucleotide (0.8 pmol) was added and the reaction was incubated at 37 °C for 60 min. The reaction was stopped by the addition of stop solution (2 µL, 95% formamide, 10 mM EDTA) followed by heating to 95 °C for 3 min. The products of the reaction were analysed using gel electrophoresis; 3 µL of each reaction was used.
Oligonucleotides were separated on a 15% acrylamide 6.5 M urea gel (2.9 g urea, 2.7 mL 40% acrylamide-bisacrylamide 25:1, 1.4 mL 5× TBE (0.45 M Tris, 0.45 M boric acid, 0.01 M EDTA pH 8.0), 0.6 mL H2O) in 1X TBE at 150 V for 90 min alongside bromophenol blue and xylene cyanol as markers for 8 and 28 nt, respectively, and imaged using Typhoon FLA 9500.
Figure 2 Evaluation of modified (di)nucleosides as inhibitors of SNM1A. (a) Structures of the twelve (di)nucleosides that were evaluated as inhibitors of SNM1A; (b) schematic representation of assay; (c) gel electrophoresis showing the extent of digestion of fluorescent 21-mer oligonucleotide substrate. SNM1A (2.5 nM) was pre-incubated with the modified (di)nucleosides (1 mM) for 5 min before the oligonucleotide substrate (80 nM) was added and a further 60 min incubation. nt = nucleotides.
Figure 3 Concentration dependence of 5′-C-linked malonate nucleoside 11. Digestion of the phosphorylated oligonucleotide (80 nM) after incubation with SNM1A (2.5 nM) and nucleoside 11 (1000–1 µM) or thymidine (T) (1 mM) for 60 min at 37 °C, analysed by denaturing PAGE. SNM1A was preincubated with the modified nucleoside for 5 min at 37 °C prior to the addition of the substrate. nt = nucleotides.

SNM1A = test system: SNM1A; parameters: method as in PMID 31380542; settings: previous work; cited from earlier work

Structure (SMILES)	Lowest Inhibitory Concentration [1]	Inhibition of SNM1A (extent of digestion of substrate) [1]	Inhibition of SNM1A (SNM1A)	Potency compared with previously reported compounds ([1]; various concentrations, Figure 5b)
Cc1cn([C@H]2C[C@H](NC(=O)CC(=O)NO)[C@@H](CO)O2)c(=O)[nH]c1=O [Compound 28, N-(3′-Deoxythymidin-3′-yl) amido N-hydroxymalonamide]	333 µM			
COC(=O)CC(=O)NC1CC(n2cc(C)c(=O)[nH]c2=O)OC1CO (stereo not shown) [Compound 26, N-(3′-Deoxythymidin-3′-yl) amido methyl malonamide]		inactive		
Cc1cn(C2CC(O)C(CC(C(=O)NO)C(=O)NC3CC(n4cc(C)c(=O)[nH]c4=O)OC3CO)O2)c(=O)[nH]c1=O (stereo not shown) [Compound 36, N-(3′-Deoxythymidin-3′-yl)-C-(5′-deoxythymidin-5′-yl) amido N-hydroxy malonamide]	333 µM	approximately equal potency		
Cc1cn(C2CC(O)C(CC(C(=O)O)C(=O)NC3CC(n4cc(C)c(=O)[nH]c4=O)OC3CO)O2)c(=O)[nH]c1=O (stereo not shown) [Compound 35, N-(3′-Deoxythymidin-3′-yl)-C-(5′-deoxythymidin-5′-yl) amido sodium malonate]	333 µM	approximately equal potency		
COC(=O)C(CC1OC(n2cc(C)c(=O)[nH]c2=O)CC1O)C(=O)NC1CC(n2cc(C)c(=O)[nH]c2=O)OC1CO (stereo not shown) [Compound 34, N-(3′-Deoxythymidin-3′-yl)-C-(5′-deoxythymidin-5′-yl) amido methyl malonate]	1000 µM	some inhibition		
Cc1cn([C@H]2C[C@H](O)[C@@H](C(=O)NO)O2)c(=O)[nH]c1=O [Compound 1]			inhibit SNM1A to varying degrees	
Cc1cn([C@H]2C[C@H](O)[C@@H](CCC(=O)NO)O2)c(=O)[nH]c1=O [Compound 2]			inhibit SNM1A to varying degrees	
COC(=O)C(C[C@H]1O[C@@H](n2cc(C)c(=O)[nH]c2=O)C[C@@H]1O)C(=O)O (stereo partly shown) [Compound 9, C-(5′-Deoxythymidin-5′-yl) monomethyl sodium malonate]	333 µM			
Cc1cn([C@H]2C[C@H](O)[C@@H](CC(C(=O)O)C(=O)NO)O2)c(=O)[nH]c1=O (stereo partly shown) [Compound 11, C-(5′-deoxythymidin-5′-yl) sodium N-hydroxymalonamide]	33 µM	most potent overall		slightly lower potency than compound 1
Cc1cn([C@H]2C[C@H](O)[C@@H](CO)O2)c(=O)[nH]c1=O [Thymidine, reference compound]		no effect on the hydrolysis of the substrate		
Cc1cn([C@H]2C[C@H](O)[C@@H](CNC(=O)CC(=O)NO)O2)c(=O)[nH]c1=O [Compound 15, N-(5′-Deoxythymidin-5′-yl) amido N-hydroxymalonamide]	333 µM	binds SNM1A		
Cc1cn([C@H]2C[C@H](NC(=O)CC(=O)O)[C@@H](CO)O2)c(=O)[nH]c1=O [Compound 27, N-(3′-Deoxythymidin-3′-yl) amido sodium malonamide]	333 µM			
Cc1cn([C@H]2C[C@H](O)[C@@H](CC(C(=O)O)C(=O)O)O2)c(=O)[nH]c1=O [Compound 10, C-(5′-Deoxythymidin-5′-yl) disodium malonate]	333 µM			
